Experimental data from US7018642B2 (The Procter & Gamble Company, priority 2001, dated 2006).

What was measured:
Assay in all cases: Biofilm prevention screen (96-well microplate, crystal violet)
Type in all cases: cell-based
[1] = test system: P. aeruginosa strain PAO1; conditions: Pseudomonas aeruginosa, positive = prevention, negative = enhancement of biofilm formation, quadruplicate, read-out: average percentage reduction of biofilm formed relative to DMSO controls
How it was run: (§1)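 Each strain grown in its own modified medium (PAO1: R2A, no Mg^2+, 0.3–0.5% fructose, 3 μM ferrous ammonium sulfate; ATCC 13525: R2A with pyruvate; ATCC 35984: ¼ TSB, 1% fructose). Compounds at three final concentrations (e.g. 250–500, 160, 32 μM), shaken 16–26 h at 30° C. (pseudomonads) or 37° C. (S. epidermidis). Crystal violet A586; % biofilm reduction versus DMSO, quadruplicate means.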

[2] = test system: P. fluorescens strain ATCC 13525; conditions: Pseudomonas fluorescens, positive = prevention, negative = enhancement of biofilm formation, quadruplicate, read-out: average percentage reduction of biofilm formed relative to DMSO controls; for inhibition at 32 µM: ATCC13525, 32 μM; for inhibition at 160 µM: ATCC13525, 160 μM; for inhibition at 390 µM: ATCC13525, 390 μM
How it was run: as §1

[3] = test system: S. epidermidis strain ATCC 35984; conditions: Staphylococcus epidermidis, positive = prevention, negative = enhancement of biofilm formation, quadruplicate, read-out: average percentage reduction of biofilm formed relative to DMSO controls; for inhibition at 32 µM: ATCC35984, 32 μM; for inhibition at 160 µM: ATCC35984, 160 μM; for inhibition at 390 µM: ATCC35984, 390 μM
How it was run: as §1

Row | SMILES | inhibition at 32 µM [1] | inhibition at 160 µM [1] | inhibition at 390 µM [1] | inhibition at 32 µM [2] | inhibition at 160 µM [2] | inhibition at 390 µM [2] | inhibition at 32 µM [3] | inhibition at 160 µM [3] | inhibition at 390 µM [3]
1 | CCCCCCCCCCCCNC(=O)[C@@H]1CCCN1 [Compound 168] | 3% | 53% | 91% | 26% | 97% | 93% | 101% | 100% | 98%
2 | CCCCCCCCCCNC(=O)[C@@H]1CCCN1 [Compound 32, L-proline n-decyl amide] | -15% | -43% | 22% | 9% | 55% | 95% | -3% | 100% | 97%
3 | O=C(NCCCCCCCCCCCCNC(=O)[C@H]1CCCN1)[C@H]1CCCN1 [Compound 226, D-proline 1,12-diaminododecane bisamide] | -23% | 96% | 95% | -19% | 10% | 69% | 24% | 101% | 100%
